Usually EC50 stands for the concentration at which the effect is half-maximal. The term IC50 denotes the concentration that inhibits the measured activity by half. Read a high IC50 as weaker potency in that assay. As a reminder, the bioavailability is the share of a dose that reaches the circulation, judged against a reference dose that is usually intravenous. The low end stands for little systemic uptake, the high end for much systemic uptake. Broadly, the half-life is the time needed for the level to fall by half in the phase considered. Higher therefore signals slow loss.

These results are taken from ChEMBL document CHEMBL1135618, “Design and pharmacology of N-[(3R)-1,2,3,4-tetrahydroisoquinolinium- 3-ylcarbonyl]-(1R)-1-(4-chlorobenzyl)- 2-[4-cyclohexyl-4-(1H-1,2,4-triazol- 1-ylmethyl)piperidin-1-yl]-2-oxoethylamine (1), a potent, selective, melanocortin subtype-4 receptor agonist” (J Med Chem, 2002).

A value given as a limit tells only on which side of the number the result lay.

Data set [1] concerns the target T1, Melanocortin receptor 4 (Homo sapiens, UniProt P32245). Description: Maximum percent cAMP accumulation at 10 uM relative to alpha-MSH at Melanocortin-4 receptor. The class given is functional. A general note: cAMP levels reflect the balance of adenylyl cyclase and phosphodiesterase activity.
Data set [2] deals with T2, Melanocortin receptor 5 (Homo sapiens, UniProt P33032). In words: Maximum percentage of cAMP accumulation at 10 uM relative to alpha-MSH at MC5R. The class given is functional.
T2 sequence (P33032 whole entry): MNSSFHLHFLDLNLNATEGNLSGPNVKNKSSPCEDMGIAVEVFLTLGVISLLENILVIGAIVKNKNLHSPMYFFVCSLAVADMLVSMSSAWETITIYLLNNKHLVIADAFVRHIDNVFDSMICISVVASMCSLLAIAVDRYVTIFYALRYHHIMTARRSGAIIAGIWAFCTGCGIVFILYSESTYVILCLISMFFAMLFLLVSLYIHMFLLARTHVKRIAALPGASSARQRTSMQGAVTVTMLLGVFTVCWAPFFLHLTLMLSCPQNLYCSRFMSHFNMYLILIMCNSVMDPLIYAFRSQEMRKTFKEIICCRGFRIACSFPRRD
For data set [3], the target named is T2, Melanocortin receptor 5. Description: Evaluated for Functional Activity at MC5R as effective concentration at 50% maximum CMP accumulation.
The target of data set [4] is T3, Melanocortin receptor 3 (Homo sapiens, UniProt P41968). In words: Maximum percentage of cAMP accumulation at 10 uM relative to alpha-MSH at MC3R. The class given is functional.
T3 sequence (P41968 whole entry): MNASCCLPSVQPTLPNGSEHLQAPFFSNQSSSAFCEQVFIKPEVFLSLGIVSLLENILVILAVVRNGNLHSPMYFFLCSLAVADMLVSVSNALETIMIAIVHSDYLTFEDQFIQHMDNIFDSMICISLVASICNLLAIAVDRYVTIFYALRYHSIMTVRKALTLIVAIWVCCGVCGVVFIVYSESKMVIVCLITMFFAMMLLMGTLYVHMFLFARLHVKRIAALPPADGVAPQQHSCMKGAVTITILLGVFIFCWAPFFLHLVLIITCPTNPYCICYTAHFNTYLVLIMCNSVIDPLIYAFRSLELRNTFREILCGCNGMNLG
The target of data set [5] is T3, Melanocortin receptor 3. Description: Evaluated for Functional Activity at MC3R as effective concentration at 50% maximum CMP accumulation.
Data set [6] deals with T1, Melanocortin receptor 4. In words: Evaluated for Functional Activity at Melanocortin-4 receptor as effective concentration at 50% maximum CMP accumulation.
Data set [7] deals with T1, Melanocortin receptor 4.
Description: Evaluated for binding affinity against Melanocortin-4 receptor by displacing [125I]-NDP-alpha-MSH radioligand expressed in CHO cells
Data set [8] has as its target Melanocortin receptor (M3 and M4) (Homo sapiens) (UniProt P32245+P41968). Description: Evaluated for selectivity for MC3R versus MC4R displacing [125I]NDP-alpha-MSH radioligand expressed in CHO cells. The class given is cell-based.
Data set [9] relates to Melanocortin receptor 5 + Melanocortin receptor 4 (Homo sapiens). Description: Evaluated for selectivity for MC5R versus MC4R displacing [125I]NDP-alpha-MSH radioligand expressed in CHO cells.
The target in data set [10] is Melanocortin receptor 4 (Rattus norvegicus) (UniProt P70596). To be noted: 10 uM.
Sequence of Melanocortin receptor 4 (Rattus norvegicus) (P70596 whole entry): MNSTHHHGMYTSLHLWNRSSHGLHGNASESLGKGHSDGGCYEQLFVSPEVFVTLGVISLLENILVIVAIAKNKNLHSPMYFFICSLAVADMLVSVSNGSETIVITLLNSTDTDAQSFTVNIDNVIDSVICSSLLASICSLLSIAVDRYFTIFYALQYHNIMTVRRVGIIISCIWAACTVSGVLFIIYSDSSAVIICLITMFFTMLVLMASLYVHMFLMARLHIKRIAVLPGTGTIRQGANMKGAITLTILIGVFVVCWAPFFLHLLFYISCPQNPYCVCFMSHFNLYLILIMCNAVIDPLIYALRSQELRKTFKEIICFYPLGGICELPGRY
Description: Percentage of cAMP accumulation at 10 uM relative to alpha-MSH at rat Melanocortin-4 receptor
Data set [11] can be described thus: Evaluated for % bioavailability in dogat a dose 0.2 mg/kg (intravenous) and 0.5 mg/kg administered orally. The class given is ADME, organism-based, Canis lupus familiaris. To be noted: dog, in vivo, po.
Data set [12] concerns the target T2, Melanocortin receptor 5. Description: Functional activity as concentration at 50% maximum cAMP accumulation in human […] (MC5R) receptor.
In data set [13] the target is T4, Melanocortin receptor 5 (Rattus norvegicus, UniProt P35345). Description: Functional activity as concentration at 50% maximum cAMP accumulation in rat Melanocortin-5 receptor (rMC5R).
T4 sequence (P35345 whole entry): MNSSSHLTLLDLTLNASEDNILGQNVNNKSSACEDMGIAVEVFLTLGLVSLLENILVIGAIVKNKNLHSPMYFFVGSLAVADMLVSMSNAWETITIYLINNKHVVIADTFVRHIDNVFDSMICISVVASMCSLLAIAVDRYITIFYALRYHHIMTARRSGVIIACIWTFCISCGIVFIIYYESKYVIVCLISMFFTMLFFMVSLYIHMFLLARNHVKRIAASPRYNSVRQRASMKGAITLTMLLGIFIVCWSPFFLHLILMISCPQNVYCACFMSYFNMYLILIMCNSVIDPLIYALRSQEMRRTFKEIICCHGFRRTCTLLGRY
The nature of data set [14]: Evaluated for Plasma clearance in dog at dose 0.2 mg/kg (intravenous) and 0.5 mg/kg administered orally. The class given is ADME, organism-based, Canis lupus familiaris.
Data set [15] can be described thus: Evaluated for half life in dog at dose 0.2 mg/kg (intravenous) and 0.5 mg/kg administered orally. The class given is ADME, organism-based, Canis lupus familiaris. Conditions: in vivo.
Data set [16] concerns the target T4, Melanocortin receptor 5. Description: Evaluated for binding affinity against rat Melanocortin-5 receptor (rMC5R) by displacing [125I]NDP-alpha-MSH radioligand expressed in CHO cells. The class given is cell-based.
The target in data set [17] is T2, Melanocortin receptor 5. To be noted: 10 uM.
Description: Percentage of cAMP accumulation at 10 uM relative to alpha-MSH at human Melanocortin 5 receptor
The target of data set [18] is T5, Melanocortin receptor 3 (Rattus norvegicus, UniProt P32244). Description: Functional activity as concentration at 50% maximum cAMP accumulation in rat Melanocortin-3 receptor (rMC3R).
T5 sequence (P32244 whole entry): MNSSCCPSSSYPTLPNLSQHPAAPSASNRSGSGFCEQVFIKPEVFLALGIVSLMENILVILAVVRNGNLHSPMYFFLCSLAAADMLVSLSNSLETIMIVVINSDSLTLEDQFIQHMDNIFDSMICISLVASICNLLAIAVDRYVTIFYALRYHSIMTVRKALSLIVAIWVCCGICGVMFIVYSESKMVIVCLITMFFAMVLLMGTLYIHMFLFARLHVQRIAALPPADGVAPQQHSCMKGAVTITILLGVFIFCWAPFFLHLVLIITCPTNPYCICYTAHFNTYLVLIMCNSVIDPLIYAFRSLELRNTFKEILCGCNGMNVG
Data set [19] deals with Melanocyte-stimulating hormone receptor (Homo sapiens) (UniProt Q01726). Conditions: 10 uM.
Sequence of Melanocyte-stimulating hormone receptor (Homo sapiens) (Q01726 whole entry, looked up): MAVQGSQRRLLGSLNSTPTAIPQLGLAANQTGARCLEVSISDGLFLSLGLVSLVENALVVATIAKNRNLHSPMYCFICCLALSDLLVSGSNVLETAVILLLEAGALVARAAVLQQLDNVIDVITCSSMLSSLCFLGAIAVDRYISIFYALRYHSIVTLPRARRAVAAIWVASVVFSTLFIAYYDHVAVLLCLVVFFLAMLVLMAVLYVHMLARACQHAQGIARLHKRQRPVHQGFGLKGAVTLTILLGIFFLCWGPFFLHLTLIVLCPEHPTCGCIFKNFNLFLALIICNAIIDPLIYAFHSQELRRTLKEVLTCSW
Description: Percentage of cAMP accumulation at 10 uM relative to alpha-MSH at hMC1R
The target of data set [20] is T6, Melanocortin receptor 4 (Rattus norvegicus, UniProt P70596). In words: Evaluated for binding affinity against rat Melanocortin-4 receptor (rMC4R) by displacing [125I]NDP-alpha-MSH radioligand expressed in CHO cells. The class given is cell-based.
T6 sequence (P70596 whole entry): as the sequence (P70596 whole entry) above
Data set [21] can be described thus: Volume of distribution evaluated at a dose 1 mg/kg (intravenous) and 10 mg/kg administered orally in rat. The class given is functional, organism-based.
Data set [22] in a line: Percent bioavailability in rat evaluated at a dose 1 mg/kg (intravenous) and 10 mg/kg administered orally and was evaluated for. The class given is ADME, organism-based. To be noted: in vivo, po.
The nature of data set [23]: Evaluated for maximum time Tmax in rat at a dose 1 mg/kg (intravenous) and 10 mg/kg administered orally. The class given is functional, organism-based.
The target in data set [24] is T5, Melanocortin receptor 3. In words: Evaluated for binding affinity against rat Melanocortin-3 receptor (rMC3R) by displacing [125I]-NDP-alpha-MSH radioligand expressed in CHO cells. The class given is cell-based.
A short description of data set [25]: Evaluated for plasma clearance in rat at a dose 1 mg/kg (intravenous) and 10 mg/kg administered orally. The class given is ADME, organism-based.
Data set [26] can be described thus: Volume of distribution evaluated at a dose 0.2 mg/kg (intravenous) and 0.5 mg/kg administered orally in dog.
Data set [27] concerns the target T6, Melanocortin receptor 4. In words: Functional activity as concentration at 50% maximum cAMP accumulation in rat Melanocortin-4 receptor (rMC4R).
In data set [28] the target is T2, Melanocortin receptor 5. In words: Evaluated for binding affinity against human melanocortin 5 (hMC5R) receptor by displacing [125I]NDP-alpha-MSH radioligand expressed in CHO cells. The class given is cell-based.
The target of data set [29] is Melanocortin receptor 3 (Rattus norvegicus) (UniProt P32244). In words: Percentage of cAMP accumulation at 10 uM relative to alpha-MSH at rat Melanocortin-3 receptor. The class given is functional.
Sequence of Melanocortin receptor 3 (Rattus norvegicus) (P32244 whole entry): as the sequence (P32244 whole entry) above
Data set [30] is described as follows: Evaluated for maximum time Tmax in dog at dose 0.2 mg/kg (intravenous) and 0.5 mg/kg administered orally. The class given is functional, organism-based.
Data set [31] is described as follows: Half life in rat evaluated at a dose 1 mg/kg (intravenous) and 10 mg/kg administered orally and was evaluated for. The class given is ADME, organism-based. To be noted: in vivo.
Data set [32] concerns the target Melanocortin receptor 5 (Rattus norvegicus) (UniProt P35345). Description: Percentage of cAMP accumulation at 10 uM relative to alpha-MSH at rat Melanocortin-5 receptor. The class given is functional.
The target in data set [33] is T3, Melanocortin receptor 3. Conditions: 10 uM.
Description: Percentage of cAMP accumulation at 10 uM relative to alpha-MSH at human Melanocortin-3 receptor
Data set [34] has as its target T3, Melanocortin receptor 3. Description: Evaluated for Functional Activity at MC3R as % of cAMP accumulation at 10 uM relative to alpha-MSH.

T1 sequence (P32245 whole entry): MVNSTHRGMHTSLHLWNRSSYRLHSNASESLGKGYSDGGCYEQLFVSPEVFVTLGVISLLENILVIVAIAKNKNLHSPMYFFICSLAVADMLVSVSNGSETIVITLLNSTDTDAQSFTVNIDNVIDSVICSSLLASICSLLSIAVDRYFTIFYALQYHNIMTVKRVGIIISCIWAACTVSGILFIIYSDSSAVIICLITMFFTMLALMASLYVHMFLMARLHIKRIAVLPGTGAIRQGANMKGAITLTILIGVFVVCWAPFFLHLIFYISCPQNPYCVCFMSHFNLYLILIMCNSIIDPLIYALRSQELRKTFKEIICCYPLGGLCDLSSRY
Sequence of Melanocortin receptor 5 (Rattus norvegicus) (P35345 whole entry): as the sequence (P35345 whole entry) above

Regarding `O=C(N[C@H](Cc1ccc(Cl)cc1)C(=O)N1CCC(Cn2cncn2)(C2CCCCC2)CC1)[C@@H]1Cc2ccccc2CN1`, the Activity in data set [1] was 67%; in data set [2], 19%; in data set [4], 7%. For the same molecule, a half-maximal effect in data set [3] (EC50) was put at 271 nM.
For the molecule `Cn1nnnc1CC1(C2CCCCC2)CCN(C(=O)[C@@H](Cc2ccc(Cl)cc2)NC(=O)[C@H]2Cc3ccccc3CN2)CC1`, the results for the EC50 in data set [5], in data set [6] and in data set [3] were 59 nM, 0.6 nM and 127 nM, respectively. In addition, the Activity in data set [1] was determined as 103%; in [2], 51%; in data set [4] it was 50%. This molecule also came in with a half-maximal inhibitory concentration (IC50) in [7] of 0.3 nM. Moreover, the Selectivity in data set [8] came to 277; in data set [9] it was 100.
Turning to `CS(=O)(=O)N1CC2(CCN(C(=O)[C@@H](Cc3ccccc3)NC(=O)[C@@H](N)Cc3c[nH]cn3)CC2)c2ccccc21`, in data set [6], a half-maximal response (EC50) required 500 nM. That is a sub-micromolar value.
Take `O=C(N[C@@H](Cc1ccc(Cl)cc1)C(=O)N1CCC(Cn2cncn2)(C2CCCCC2)CC1)[C@H]1Cc2ccccc2CN1`: the Activity came to 9% in data set [1], 2% in data set [2] and 1% in [4].
Regarding `O=C(N[C@@H](Cc1ccc(Cl)cc1)C(=O)N1CCC(Cn2cncn2)(C2CCCCC2)CC1)[C@@H]1Cc2ccccc2CN1`, the Activity came out at 34% in data set [1], 5% in data set [2] and 4% in data set [4].
On to `O=C(N[C@H](Cc1ccc(Cl)cc1)C(=O)N1CCC(Cn2cncn2)(C2CCCCC2)CC1)[C@H]1Cc2ccccc2CN1`, for which the Activation in data set [10] turned out to be 99%; in data set [17] it was 61%; in data set [19] it was 95%; in [29] it was 65%; in data set [32], 58%; in data set [33], 32%. For the same molecule, the figures for the bioavailability in data set [11] and in data set [22] were 16% and 14%, respectively. Further, the half-maximal effective concentration (EC50) in data set [12] was 737 nM; in [13], more than 3000 nM; in [18], 1320 nM; in data set [3], 736 nM; in data set [27] it was 2.9 nM. Moreover, the clearance in [14] came out at 27.6 mL/min/kg; in data set [25], 84 mL/min/kg. The figures for the half-life in data set [15] and in [31] were 1.2 h and 0.6 h, respectively. Moreover, the IC50 was 1570 nM in data set [16], 0.6 nM in data set [20], 1880 nM in [24] and 326 nM in data set [28]. The values for the Vdss in [21] and in data set [26] were 3.6 L/kg and 2.79 L/kg, respectively. Besides, the Tmax stood at 1 h in data set [23] and 1.5 h in [30]. Moreover, the Activity in data set [2] turned out to be 61%; in [4], 32%.
Consider `Cn1nnc(CC2(C3CCCCC3)CCN(C(=O)[C@@H](Cc3ccc(Cl)cc3)NC(=O)[C@H]3Cc4ccccc4CN3)CC2)n1`, for which the figures for the Activity in data set [34] and in [1] were 24% and 87%, respectively. The EC50 in data set [6] was determined as 9.6 nM; in [3], 1000 nM. Moreover, half-maximal inhibition in data set [7] (IC50) was put at 1.2 nM.
With `O=C(N[C@H](Cc1ccc(Cl)cc1)C(=O)N1CCC(Cc2nnn[nH]2)(C2CCCCC2)CC1)[C@H]1Cc2ccccc2CN1`, the Activity in [1] was determined as 79%; in data set [2], 15%; in data set [4], 10%. In addition, the EC50 in data set [6] amounted to 771 nM. Moreover, the IC50 in data set [7] stood at 238 nM. Besides, the Selectivity in [8] worked out at 53; in data set [9], 19.
For `CS(=O)(=O)N1CC2(CCN(C(=O)[C@@H](Cc3ccc4ccccc4c3)NC(=O)[C@@H](N)Cc3cnc[nH]3)CC2)c2ccccc21`, in [7], the 50% inhibitory concentration (IC50) was 108 nM.
